# Assays:
# Assay type in all cases: in vivo
# Abutilon theophrasti [1] = experiment: Pre-emergence herbicidal action against ABUTH; settings: visual score after 3 weeks vs untreated controls
# How it was run: (§1)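 Sandy loam pots, seeds covered with soil, then surface-treated with WP or EC formulations at 600–800 l/ha water plus 0.2% wetting agent. Greenhouse, 3 weeks. Percent damage vs untreated controls.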
# Alopecurus myosuroides [2] = experiment: Pre-emergence herbicidal action against ALOMY; settings: visual score after 3 weeks vs untreated controls
# How it was run: as §1
# Amaranthus retroflexus [3] = experiment: Pre-emergence herbicidal action against AMARE; settings: visual score after 3 weeks vs untreated controls
# How it was run: as §1
# Avena fatua [4] = experiment: Pre-emergence herbicidal action against AVEFA; settings: 320 g/ha; visual score after 3 weeks vs untreated controls
# How it was run: as §1
# Cyperus esculentus [5] = experiment: Pre-emergence herbicidal action against CYPES; settings: visual score after 3 weeks vs untreated controls
# How it was run: as §1
# Echinochloa crus-galli [6] = experiment: Pre-emergence herbicidal action against ECHCG; settings: visual score after 3 weeks vs untreated controls
# How it was run: as §1
# Matricaria inodora [7] = experiment: Pre-emergence herbicidal action against MATIN; settings: visual score after 3 weeks vs untreated controls
# How it was run: as §1
# Pharbitis purpurea [8] = experiment: Pre-emergence herbicidal action against PHBPU; settings: 320 g/ha; visual score after 3 weeks vs untreated controls
# How it was run: as §1
# Hordeum murinum [9] = experiment: Pre-emergence herbicidal action against HORMU; settings: 320 g/ha; visual score after 3 weeks vs untreated controls
# How it was run: as §1
# Lolium rigidum = experiment: Pre-emergence herbicidal action against LOLRI; settings: 320 g/ha
# How it was run: as §1
# Setaria viridis [10] = experiment: Pre-emergence herbicidal action against SETVI
# How it was run: as §1
# Stellaria media [11] = experiment: Pre-emergence herbicidal action against STEME
# How it was run: as §1
# Veronica persica [12] = experiment: Pre-emergence herbicidal action against VERPE; settings: 320 g/ha
# How it was run: as §1
# Viola tricolor [13] = experiment: Pre-emergence herbicidal action against VIOTR
# How it was run: as §1
# Abutilon theophrasti [14] = experiment: Post-emergence herbicidal action against ABUTH
# How it was run: (§2)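 Herbicidal action is a visual percentage rating (0% = as untreated control, 100% = plants dead) made roughly 3 weeks after treatment. Plants were grown in sandy loam in the greenhouse and treated at the one-leaf stage, 2 to 3 weeks post-sowing. Treatment was a foliar spray of wettable-powder or emulsion-concentrate formulations at 600 to 800 l/ha water plus 0.2% wetting agent.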
# Alopecurus myosuroides [15] = experiment: Post-emergence herbicidal action against ALOMY
# How it was run: as §2
# Amaranthus retroflexus [16] = experiment: Post-emergence herbicidal action against AMARE; settings: visual assessment about 3 weeks after treatment
# How it was run: as §2
# Avena fatua [17] = experiment: Post-emergence herbicidal action against AVEFA; settings: visual assessment about 3 weeks after treatment
# How it was run: as §2
# Cyperus esculentus [18] = experiment: Post-emergence herbicidal action against CYPES; settings: visual assessment about 3 weeks after treatment
# Description: (§3) Seeds of monocotyledonous and dicotyledonous weed and crop plants are laid out in sandy loam soil in wood-fiber pots, covered with soil and cultivated in a greenhouse under good growth conditions. 2 to 3 weeks after sowing, the test plants are treated at the one-leaf stage. The compounds of the invention, formulated in the form of wettable powders (WP) or as emulsion concentrates (EC), are then sprayed onto the green parts of the plants in the form of an aqueous suspension or emulsion at a water application rate equivalent to 600 to 800 l/ha, with addition of 0.2% wetting agent. After the test plants have been left to stand in the greenhouse under optimal growth conditions for about 3 weeks, the action of the preparations is assessed visually in comparison to untreated controls (herbicidal action in percent (%): 100% activity=the plants have died, 0% activity=like control plants). […] The tables below illustrate, in an illustrative manner, the post-emergence herbicidal action of the compounds of the invention, the herbicidal activity being stated in percent.
# Echinochloa crus-galli [19] = experiment: Post-emergence herbicidal action against ECHCG; settings: visual assessment about 3 weeks after treatment
# How it was run: as §2
# Matricaria inodora [20] = experiment: Post-emergence herbicidal action against MATIN; settings: visual assessment about 3 weeks after treatment
# How it was run: as §2
# Pharbitis purpurea [21] = experiment: Post-emergence herbicidal action against PHBPU; settings: visual assessment about 3 weeks after treatment
# How it was run: as §2
# Hordeum murinum [22] = experiment: Post-emergence herbicidal action against HORMU
# Description: as §3
# Polygonum convolvulus [23] = experiment: Post-emergence herbicidal action against POLCO; settings: visual assessment about 3 weeks after treatment
# Description: as §3
# Setaria viridis [24] = experiment: Post-emergence herbicidal action against SETVI; settings: visual assessment about 3 weeks after treatment
# How it was run: as §2
# Stellaria media [25] = experiment: Post-emergence herbicidal action against STEME; settings: visual assessment about 3 weeks after treatment
# How it was run: as §2
# Veronica persica [26] = experiment: Post-emergence herbicidal action against VERPE; settings: 80 g/ha, visual assessment about 3 weeks after treatment
# How it was run: as §2
# Viola tricolor [27] = experiment: Post-emergence herbicidal action against VIOTR
# How it was run: as §2
# Polygonum convolvulus [28] = experiment: Pre-emergence herbicidal action against POLCO
# How it was run: as §1
# [29] = Dosage column 320 g/ha (heading prints 3200 g/ha)
smiles,measurement,setting,value
CCCn1nnnc1NC(=O)c1ccc(C(F)(F)F)c(C(=O)N(C)CC)c1Cl [Example 3-124],Pre-emergence action against ABUTH,Abutilon theophrasti [1]; 20 g/ha,100%
same,Pre-emergence action against ABUTH,Abutilon theophrasti [1]; 80 g/ha,100%
same,Pre-emergence action against ABUTH,Abutilon theophrasti [1]; [29],100%
same,Pre-emergence action against ALOMY,Alopecurus myosuroides [2]; 80 g/ha,80%
same,Pre-emergence action against ALOMY,Alopecurus myosuroides [2]; 320 g/ha,90%
same,Pre-emergence action against AMARE,Amaranthus retroflexus [3]; 20 g/ha,90%
same,Pre-emergence action against AMARE,Amaranthus retroflexus [3]; 80 g/ha,100%
same,Pre-emergence action against AMARE,Amaranthus retroflexus [3]; 320 g/ha,100%
same,Pre-emergence action against AVEFA,Avena fatua [4],100%
same,Pre-emergence action against CYPES,Cyperus esculentus [5]; 80 g/ha,80%
same,Pre-emergence action against CYPES,Cyperus esculentus [5]; 320 g/ha,90%
same,Pre-emergence action against ECHCG,Echinochloa crus-galli [6]; 80 g/ha,80%
same,Pre-emergence action against ECHCG,Echinochloa crus-galli [6]; 320 g/ha,100%
same,Pre-emergence action against MATIN,Matricaria inodora [7]; 20 g/ha,80%
same,Pre-emergence action against MATIN,Matricaria inodora [7]; 80 g/ha,90%
same,Pre-emergence action against MATIN,Matricaria inodora [7]; 320 g/ha,90%
same,Pre-emergence action against PHBPU,Pharbitis purpurea [8],90%
same,Pre-emergence action against HORMU,Hordeum murinum [9],80%
same,Pre-emergence action against LOLRI,Lolium rigidum,80%
same,Pre-emergence action against SETVI,Setaria viridis [10]; 80 g/ha,90%
same,Pre-emergence action against SETVI,Setaria viridis [10]; 320 g/ha,100%
same,Pre-emergence action against STEME,Stellaria media [11]; 20 g/ha,90%
same,Pre-emergence action against STEME,Stellaria media [11]; 80 g/ha,100%
same,Pre-emergence action against STEME,Stellaria media [11]; 320 g/ha,100%
same,Pre-emergence action against VERPE,Veronica persica [12],90%
same,Pre-emergence action against VIOTR,Viola tricolor [13]; 80 g/ha,80%
same,Pre-emergence action against VIOTR,Viola tricolor [13]; 320 g/ha,100%
same,Post-emergence action against ABUTH,Abutilon theophrasti [14]; 5 g/ha,100%
same,Post-emergence action against ABUTH,Abutilon theophrasti [14]; 20 g/ha,100%
same,Post-emergence action against ABUTH,Abutilon theophrasti [14]; 80 g/ha,100%
same,Post-emergence action against ALOMY,Alopecurus myosuroides [15]; 20 g/ha,80%
same,Post-emergence action against ALOMY,Alopecurus myosuroides [15]; 80 g/ha,100%
same,Post-emergence action against AMARE in %,Amaranthus retroflexus [16]; 5 g/ha,100%
same,Post-emergence action against AMARE in %,Amaranthus retroflexus [16]; 20 g/ha,100%
same,Post-emergence action against AMARE in %,Amaranthus retroflexus [16]; 80 g/ha,100%
same,Post-emergence action against AVEFA in %,Avena fatua [17]; 20 g/ha,80%
same,Post-emergence action against AVEFA in %,Avena fatua [17]; 80 g/ha,100%
same,Post-emergence action against CYPES in %,Cyperus esculentus [18]; 80 g/ha,80%
same,Post-emergence action against ECHCG in %,Echinochloa crus-galli [19]; 5 g/ha,90%
same,Post-emergence action against ECHCG in %,Echinochloa crus-galli [19]; 20 g/ha,100%
same,Post-emergence action against ECHCG in %,Echinochloa crus-galli [19]; 80 g/ha,100%
same,Post-emergence action against MATIN in %,Matricaria inodora [20]; 5 g/ha,90%
same,Post-emergence action against MATIN in %,Matricaria inodora [20]; 20 g/ha,100%
same,Post-emergence action against MATIN in %,Matricaria inodora [20]; 80 g/ha,100%
same,Post-emergence action against PHBPU in %,Pharbitis purpurea [21]; 5 g/ha,90%
same,Post-emergence action against PHBPU in %,Pharbitis purpurea [21]; 20 g/ha,90%
same,Post-emergence action against PHBPU in %,Pharbitis purpurea [21]; 80 g/ha,100%
same,Post-emergence action against HORMU in %,Hordeum murinum [22]; 20 g/ha,80%
same,Post-emergence action against HORMU in %,Hordeum murinum [22]; 80 g/ha,80%
same,Post-emergence action against POLCO in %,Polygonum convolvulus [23]; 80 g/ha,80%
same,Post-emergence action against SETVI in %,Setaria viridis [24]; 5 g/ha,90%
same,Post-emergence action against SETVI in %,Setaria viridis [24]; 20 g/ha,90%
same,Post-emergence action against SETVI in %,Setaria viridis [24]; 80 g/ha,100%
same,Post-emergence action against STEME in %,Stellaria media [25]; 5 g/ha,90%
same,Post-emergence action against STEME in %,Stellaria media [25]; 20 g/ha,100%
same,Post-emergence action against STEME in %,Stellaria media [25]; 80 g/ha,100%
same,Post-emergence action against VERPE in %,Veronica persica [26],80%
same,Post-emergence action against VIOTR in %,Viola tricolor [27]; 5 g/ha,100%
same,Post-emergence action against VIOTR in %,Viola tricolor [27]; 20 g/ha,100%
same,Post-emergence action against VIOTR in %,Viola tricolor [27]; 80 g/ha,100%
CCCn1nnnc1NC(=O)c1ccc(C(F)(F)F)c(C(=O)N2CCCC2)c1Cl [Example 3-152],Pre-emergence action against ABUTH,Abutilon theophrasti [1]; 20 g/ha,100%
same,Pre-emergence action against ABUTH,Abutilon theophrasti [1]; 80 g/ha,100%
same,Pre-emergence action against ABUTH,Abutilon theophrasti [1]; [29],100%
same,Pre-emergence action against ALOMY,Alopecurus myosuroides [2]; 320 g/ha,80%
same,Pre-emergence action against AMARE,Amaranthus retroflexus [3]; 20 g/ha,100%
same,Pre-emergence action against AMARE,Amaranthus retroflexus [3]; 80 g/ha,100%
same,Pre-emergence action against AMARE,Amaranthus retroflexus [3]; 320 g/ha,100%
same,Pre-emergence action against AVEFA,Avena fatua [4],100%
same,Pre-emergence action against CYPES,Cyperus esculentus [5]; 80 g/ha,80%
same,Pre-emergence action against CYPES,Cyperus esculentus [5]; 320 g/ha,90%
same,Pre-emergence action against ECHCG,Echinochloa crus-galli [6]; 80 g/ha,80%
same,Pre-emergence action against ECHCG,Echinochloa crus-galli [6]; 320 g/ha,100%
same,Pre-emergence action against MATIN,Matricaria inodora [7]; 20 g/ha,80%
same,Pre-emergence action against MATIN,Matricaria inodora [7]; 80 g/ha,100%
same,Pre-emergence action against MATIN,Matricaria inodora [7]; 320 g/ha,100%
same,Pre-emergence action against PHBPU,Pharbitis purpurea [8],100%
same,Pre-emergence action against POLCO,Polygonum convolvulus [28]; 80 g/ha,80%
same,Pre-emergence action against POLCO,Polygonum convolvulus [28]; 320 g/ha,90%
same,Pre-emergence action against SETVI,Setaria viridis [10]; 320 g/ha,100%
same,Pre-emergence action against STEME,Stellaria media [11]; 20 g/ha,100%
same,Pre-emergence action against STEME,Stellaria media [11]; 80 g/ha,100%
same,Pre-emergence action against STEME,Stellaria media [11]; 320 g/ha,100%
same,Pre-emergence action against VERPE,Veronica persica [12],100%
same,Pre-emergence action against VIOTR,Viola tricolor [13]; 80 g/ha,90%
same,Pre-emergence action against VIOTR,Viola tricolor [13]; 320 g/ha,90%
same,Post-emergence action against ABUTH,Abutilon theophrasti [14]; 5 g/ha,90%
same,Post-emergence action against ABUTH,Abutilon theophrasti [14]; 20 g/ha,100%
same,Post-emergence action against ABUTH,Abutilon theophrasti [14]; 80 g/ha,100%
same,Post-emergence action against ALOMY,Alopecurus myosuroides [15]; 80 g/ha,80%
same,Post-emergence action against AMARE in %,Amaranthus retroflexus [16]; 5 g/ha,100%
same,Post-emergence action against AMARE in %,Amaranthus retroflexus [16]; 20 g/ha,100%
same,Post-emergence action against AMARE in %,Amaranthus retroflexus [16]; 80 g/ha,100%
same,Post-emergence action against AVEFA in %,Avena fatua [17]; 80 g/ha,100%
same,Post-emergence action against CYPES in %,Cyperus esculentus [18]; 20 g/ha,80%
same,Post-emergence action against CYPES in %,Cyperus esculentus [18]; 80 g/ha,80%
same,Post-emergence action against ECHCG in %,Echinochloa crus-galli [19]; 20 g/ha,80%
same,Post-emergence action against ECHCG in %,Echinochloa crus-galli [19]; 80 g/ha,100%
same,Post-emergence action against MATIN in %,Matricaria inodora [20]; 80 g/ha,90%
same,Post-emergence action against PHBPU in %,Pharbitis purpurea [21]; 20 g/ha,80%
same,Post-emergence action against PHBPU in %,Pharbitis purpurea [21]; 80 g/ha,100%
same,Post-emergence action against POLCO in %,Polygonum convolvulus [23]; 20 g/ha,90%
same,Post-emergence action against POLCO in %,Polygonum convolvulus [23]; 80 g/ha,90%
same,Post-emergence action against SETVI in %,Setaria viridis [24]; 80 g/ha,100%
same,Post-emergence action against STEME in %,Stellaria media [25]; 5 g/ha,80%
same,Post-emergence action against STEME in %,Stellaria media [25]; 20 g/ha,80%
same,Post-emergence action against STEME in %,Stellaria media [25]; 80 g/ha,90%
same,Post-emergence action against VERPE in %,Veronica persica [26],80%
same,Post-emergence action against VIOTR in %,Viola tricolor [27]; 80 g/ha,80%
